Earlier results as cited in US5516904A, “Acetylenes disubstituted with a heteroaromatic group and a substituted phenyl group having retinoid like activity” (Allergan, Inc., priority 1995, dated 1996).

Tested on: ornithine decarboxylase (ODC)
Conditions: result in words; literature background

CC1=C(/C=C/C(C)=C/C=C/C(C)=C/C(=O)O)C(C)(C)CCC1 [Retionic acid, retinoic acid]
inhibition of induction of ODC activity by TPA: inhibits
